According to ChEMBL document CHEMBL5727898, “Compounds and their use for reducing uric acid levels” (2020):

Molecular target: Xanthine dehydrogenase/oxidase (Homo sapiens, UniProt P47989)
Assay: xanthine oxidase activity: Xanthine oxidase inhibition was determined using a standard fluorescence-based assay for xanthine oxidase activity (McHale A, Grimes H, Coughlan M P: Int J Biochem. 10:317-9, 1979) with minor variations. […] Experiments on test compounds were performed in triplicate in multi-well plates using 10 concentrations of each compound that ranged over a 3-fold dilution.

Xanthine dehydrogenase/oxidase, sequence (P47989 whole entry): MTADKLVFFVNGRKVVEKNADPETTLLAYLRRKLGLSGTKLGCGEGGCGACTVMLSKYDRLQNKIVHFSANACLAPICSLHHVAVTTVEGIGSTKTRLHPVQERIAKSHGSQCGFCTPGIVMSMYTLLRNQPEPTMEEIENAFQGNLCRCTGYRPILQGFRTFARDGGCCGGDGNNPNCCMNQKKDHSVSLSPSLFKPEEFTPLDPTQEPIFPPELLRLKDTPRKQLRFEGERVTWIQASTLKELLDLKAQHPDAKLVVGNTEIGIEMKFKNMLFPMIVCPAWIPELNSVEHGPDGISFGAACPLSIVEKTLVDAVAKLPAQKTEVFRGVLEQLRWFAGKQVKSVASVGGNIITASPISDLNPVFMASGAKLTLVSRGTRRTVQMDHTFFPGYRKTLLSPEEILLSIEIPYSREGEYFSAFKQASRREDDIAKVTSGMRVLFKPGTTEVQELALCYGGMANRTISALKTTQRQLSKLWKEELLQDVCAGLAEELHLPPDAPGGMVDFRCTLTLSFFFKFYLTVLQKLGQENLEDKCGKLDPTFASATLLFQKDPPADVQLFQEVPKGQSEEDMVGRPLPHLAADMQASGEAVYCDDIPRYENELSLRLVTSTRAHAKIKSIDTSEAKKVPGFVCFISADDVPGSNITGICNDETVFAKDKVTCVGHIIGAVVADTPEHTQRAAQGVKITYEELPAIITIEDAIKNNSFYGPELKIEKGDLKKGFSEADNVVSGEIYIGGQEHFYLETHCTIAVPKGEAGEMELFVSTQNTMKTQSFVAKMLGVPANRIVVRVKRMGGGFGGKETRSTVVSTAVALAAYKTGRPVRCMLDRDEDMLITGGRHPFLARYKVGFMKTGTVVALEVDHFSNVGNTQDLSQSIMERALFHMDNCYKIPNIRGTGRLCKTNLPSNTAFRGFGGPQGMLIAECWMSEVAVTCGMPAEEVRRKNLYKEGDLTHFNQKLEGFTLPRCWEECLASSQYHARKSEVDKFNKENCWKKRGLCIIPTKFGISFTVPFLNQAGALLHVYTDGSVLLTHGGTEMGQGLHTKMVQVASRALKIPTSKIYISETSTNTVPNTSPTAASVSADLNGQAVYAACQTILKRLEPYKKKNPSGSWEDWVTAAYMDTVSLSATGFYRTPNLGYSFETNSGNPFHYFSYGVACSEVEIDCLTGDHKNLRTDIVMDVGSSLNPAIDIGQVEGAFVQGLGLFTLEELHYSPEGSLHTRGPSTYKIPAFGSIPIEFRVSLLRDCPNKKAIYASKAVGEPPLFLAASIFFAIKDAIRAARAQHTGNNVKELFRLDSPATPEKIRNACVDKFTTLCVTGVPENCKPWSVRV

Question: For `O=C(O)CSc1nnc(Br)n1-c1ccc(C2CC2)c2ccccc12`, which IC50 is on record?
Answer: > 300 µM
